Molecules are shown by their SMILES.

The subject of assay [1] is Shank2^−/− mice. In words: Repetitive behaviors (jumping, grooming) in home cage. Conditions: 30 mg/kg i.p.; for Grooming / Jumping: Shank2^−/− mice, 2 hours prior to testing; for Repetitive behaviors: wild-type mice. The assay is classed as in vivo, mouse. As to the method:
The injection was performed 2 hours before (Shank2^−/− mice and wild-type littermates), or 3 hours before (Tbr1^+/− mice and wild-type littermates) behavioral assays at the discretion of the facility. A within-subjects design was designed with a one week washout period (FIG. 8), and divided animals into two groups, vehicle-first and clioquinol-first group, to rule out carryover effects. Each mouse received a single acute dose of vehicle or clioquinol, and underwent a single behavioral task, one task per week. Testing was conducted in dedicated behavioral test rooms during the light phase (three-chamber test) and the dark phase (repetitive behaviors and open field test). Shank2^−/− mice and their wild-type littermates in their home cages without bedding were used to measure times spent in repetitive behaviors including jumping and grooming. In this case, jumping is defined as mice planting rear feet and standing up by lifting front feet along the cage, in other words, the cage corner or a side wall, and jumping up such that both of the rear feed are separated from the bottom surface. Meanwhile, grooming is defined as stroking or scratching the face or the body with two front feet or licking a part of the body. The experiments and analysis were performed independently in a blind manner.

Assay [2] has as its system Shank2^−/− mice. The experiment in a line: Open field test. The note with it: 30 mg/kg i.p.; for Locomotor activity (hyperactivity, excessive action) / Time spent in the center region (anxiety-like behavior): 30 mg/kg. The assay is classed as in vivo, mouse. As to the method: The injection was performed 2 hours before (Shank2^−/− mice and wild-type littermates), or 3 hours before (Tbr1^+/− mice and wild-type littermates) behavioral assays at the discretion of the facility. A within-subjects design was designed with a one week washout period (FIG. 8), and divided animals into two groups, vehicle-first and clioquinol-first group, to rule out carryover effects. Each mouse received a single acute dose of vehicle or clioquinol, and underwent a single behavioral task, one task per week. Testing was conducted in dedicated behavioral test rooms during the light phase (three-chamber test) and the dark phase (repetitive behaviors and open field test). The size of the open field box was 40×40×40 cm, and the center zone line was 13.3 cm apart from the edge. Mice were placed in the center in the beginning of the test, and mouse movements were recorded with a video camera for 60 minutes, and analyzed by Ethovision 10.0 (Noldus).

A further assay concerns AMPAR. The experiment in a line: AMPA-fEPSPs, input-output and paired pulse ratio, hippocampal slices. In kind it is cell-based, mouse. Conditions: 4 uM; for AMPA-fEPSPs: WT and KO; for Input-output relationship (AMPA-fEPSP slopes against fiber volley): WT and Shank2^−/− SC-CA1 synapses. As to the method:
For electrophysiological experiments, sagittal hippocampal slices (400 uM thick for extracellular, 300 uM thick for intracellular recordings) of Shank2^-/- mice (or ZnT3^-/- mice) and their wild-type littermates were prepared using a vibratome (Leica VT1200) in ice-cold dissection buffer containing (in mM) 212 sucrose, 25 NaHCO3, 5 KCl, 1.25 NaH2PO4, 0.5 CaCl2, 3.5 MgSO4, 10 D-glucose, 1.25 L-ascorbic acid, and 2 Na-pyruvate bubbled with 95% 02/5% CO2. CA3 was removed to prevent epileptiform activity. Slices were restored for 1 hour in 32° C. in a normal artificial CSF (ACSF) (In units of mM: 124 NaCl, 2.5 kCl, 1 NaH2PO4, 25 NaHCO3, 10 glucose, 2 CaC12, 2 Mg504 oxidized by 95% 02/5% CO2) For the recording, a single slice was moved to and maintained in submerged-type chamber at 28° C., continuously perfused with ACSF (2 mL/minute) saturated with 95% 02/5% CO2. Stimulation and recording pipettes were pulled from borosilicate glass capillaries (Harvard Apparatus) using a micropipette electrode puller ([…]). For extracellular recordings, mouse hippocampal slices at the age of postnatal day 21 to 35 were used. Field excitatory postsynaptic potentials (fEPSPs) were recorded in the stratum radiatum of the hippocampal CA1 region using pipettes filled with ACSF (1 MΩ). fEPSP was amplified (Multiclamp 700B, Molecular Devices), and digitized (Digidata 1440A, Molecular Devices) for measurements. The Schaffer collateral pathway was stimulated every 20 seconds with pipettes filled with ACSF (0.3 to 0.5 MΩ). The stimulation intensity was adjusted to yield a half-maximal response, and three successive responses were averaged and expressed relative to the normalized baseline. To induce LTP, high frequency stimulation (100 Hz, 1 s) was applied after a stable baseline was acquired.

For the molecule `Oc1c(I)cc(Cl)c2cccnc12` [clioquinol, 5-Chloro-7-Iodo-8-Hydroxyquinoline], the results for the Grooming entry with Shank2^−/− mice [1], with Shank2^−/− mice [1] (listed as CQ) and in the assay with Shank2^−/− mice [1] (listed as Clioquinol) were “not influenced”, “has no effect on grooming” and “had no effect”, respectively. The Jumping entry in the assay on Shank2^−/− mice [1] is recorded as “not influenced”; in the assay on Shank2^−/− mice [1] (listed as CQ) it was “fails to improve jumping”; with Shank2^−/− mice [1] (listed as Clioquinol), “had no effect”. Also, the Repetitive behaviors entry is “did not affect repetitive behaviors” with Shank2^−/− mice [1] and “had no effect” in the assay with Shank2^−/− mice [1] (listed as Clioquinol). Moreover, the “Locomotor activity (hyperactivity, excessive action)” value in the assay on Shank2^−/− mice [2] (Shank2^−/− mice) was “did not weaken”; in the assay on Shank2^−/− mice [2] (Shank2^−/− mice, listed as Clioquinol), “did not improve excessive action”. For the same molecule, the “Time spent in the center region (anxiety-like behavior)” value with Shank2^−/− mice [2] (Shank2^−/− mice) was “had no effect on the center-region time”; with Shank2^−/− mice [2] (Shank2^−/− mice, listed as CQ), “has no effect on the time spent in the center region”; in the assay on Shank2^−/− mice [2] (wild-type mice, listed as CQ), “has no effect on the time spent in the center region”; with Shank2^−/− mice [2] (wild-type mice, listed as Clioquinol), “had no effect”. Besides, in the assay on Shank2^−/− mice [2] (wild-type mice), the Locomotor behavior entry is “had no effect”. For the same molecule, the AMPA-fEPSPs result in the assay on AMPAR is recorded as “not affected”; in the assay with AMPAR (listed as CQ), “has no effect on AMPA-fEPSPs”. For the same molecule, the “Input-output relationship (AMPA-fEPSP slopes against fiber volley)” value is recorded as “had no effect” with AMPAR and “has no effect on the input-output relationship” in the assay on AMPAR (listed as CQ).

The values above are taken from patent publication US20160120858A1 (ACADEMIA SINICA, priority 2014, published 2016).
